{"source": "patent US20100286400A1", "about": "“CRYSTALLINE SOLVATED FORMS OF (R)-2-[[[3-METHYL-4-(2,2,2-TRIFLUOROETHOXY)-2-PYRIDINYL]METHYL]SULFINYL]-1H-BENZIMIDAZOLE” (TAKEDA PHARMACEUTICAL COMPANY LIMITED, priority 2007, published 2010)", "format_in_all_cases": "physicochemical", "key": {"[1]": {"experiment": "Interconversion slurries of mixtures of forms in aqueous saturated solutions (XRPD)", "conditions": "slurry in water, ambient, additional time beyond 5 days", "protocol": "Mixtures of Forms I, II, III, IV and VI were slurried in aqueous saturated solutions at ambient temperature and up to 40° C. A mixture of Form II and Pattern V material was obtained when the mixture of forms was slurried at ambient temperature for 5 days, despite the absence of Pattern V material as starting material."}, "[2]": {"experiment": "Solubility of crystal forms as a suspension of powder in water (HPLC and XRPD)", "protocol": "The solubilities of Forms I, II, III, IV and VI of (R)-lansoprazole obtained in the above-mentioned Reference Example 1 and Examples were tested as a suspension of power in water at 25° C. for 5 days. The solid samples of each form were tested as-is by HPLC and XRPD without particle size determination. […] The extent of chemical degradation as a function of time was similar for all forms."}, "[3]": {"experiment": "Relationships among Forms of R(+)-lansoprazole under various conditions", "text": "The relationships among Forms of R(+)-lansoprazole were studied under various conditions."}}, "data": [{"compound": "Cc1c(OCC(F)(F)F)ccnc1C[S@@+]([O-])c1nc2ccccc2[nH]1", "note": "[Pattern V, (R)-2-[[[3-methyl-4-(2,2,2-trifluoroethoxy)-2-pyridinyl]methyl]sulfinyl]-1H-benzimidazole]", "values": [{"measurement": "form obtained on additional slurry time", "setting": "[1]", "result": "converted to Form II"}]}, {"compound": "Cc1c(OCC(F)(F)F)ccnc1C[S@@+]([O-])c1nc2ccccc2[nH]1", "note": "[Form II, (R)-2-[[[3-methyl-4-(2,2,2-trifluoroethoxy)-2-pyridinyl]methyl]sulfinyl]-1H-benzimidazole]", "values": [{"measurement": "chemical degradation over time", "setting": "[2]; suspension in water at 25° C. for 5 days", "result": "chemically degraded over time"}, {"measurement": "order of stability in transfer (crystal form conversion)", "setting": "[3]; according to Experimental Example 2 and 3, most stable first", "result": "Form II, Form VI, Form III, Form IV, and Form V, in that order"}, {"measurement": "appearance on heating", "setting": "[3]; vial purged with nitrogen, heated to 93° C. in an oil bath", "result": "Sample had turned brown in up to 45 seconds, removed"}]}, {"compound": "Cc1c(OCC(F)(F)F)ccnc1C[S@@+]([O-])c1nc2ccccc2[nH]1", "note": "[Form I, (R)-2-[[[3-methyl-4-(2,2,2-trifluoroethoxy)-2-pyridinyl]methyl]sulfinyl]-1H-benzimidazole]", "values": [{"measurement": "XRPD of residual solids after the solubility study", "setting": "[2]; after 5 days as a suspension in water at 25° C.", "result": "a mixture consisting of Form I (major component) and Form II"}]}]}
